Reference: patent US7880007B2, “Bicyclic substituted phenyl piperidine modulators of muscarinic receptors” (Vertex Pharmaceuticals Incorporated, priority 2004, dated 2011)

Assays:
Assay type in all cases: cell-based
[1] = molecular target: T1, M3 muscarinic receptor (Homo sapiens, UniProt P20309); assay: Functional mobilization of intracellular calcium (FLIPR), M3-CHO cells; settings: for M3 Activity: M3-CHO cells, calcium mobilization (FLIPR)
T1 construct: expressed in transfected cells; host or cells: CHO (M3-CHO)
Outline: (§1)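 CHO cells expressing human M1–M4 receptors loaded with Fluo-3 AM or Calcium 3 dye (1 mM probenecid, pH 7.4); 0.5% DMSO final. Agonist mode: compound added directly; antagonist mode: 15 min pre-incubation or co-application, then carbachol at EC80. Fluorescence read 60 s on FLIPR; efficacy relative to carbachol maximum.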

[2] = molecular target: T2, M4 muscarinic receptor (Homo sapiens, UniProt P08173); assay: Functional mobilization of intracellular calcium (FLIPR), M4-CHO cells; settings: for M4 Activity: M4-CHO cells, calcium mobilization (FLIPR)
T2 construct: expressed in transfected cells; host or cells: CHO (M4-CHO)
T2 sequence (P08173 1-479): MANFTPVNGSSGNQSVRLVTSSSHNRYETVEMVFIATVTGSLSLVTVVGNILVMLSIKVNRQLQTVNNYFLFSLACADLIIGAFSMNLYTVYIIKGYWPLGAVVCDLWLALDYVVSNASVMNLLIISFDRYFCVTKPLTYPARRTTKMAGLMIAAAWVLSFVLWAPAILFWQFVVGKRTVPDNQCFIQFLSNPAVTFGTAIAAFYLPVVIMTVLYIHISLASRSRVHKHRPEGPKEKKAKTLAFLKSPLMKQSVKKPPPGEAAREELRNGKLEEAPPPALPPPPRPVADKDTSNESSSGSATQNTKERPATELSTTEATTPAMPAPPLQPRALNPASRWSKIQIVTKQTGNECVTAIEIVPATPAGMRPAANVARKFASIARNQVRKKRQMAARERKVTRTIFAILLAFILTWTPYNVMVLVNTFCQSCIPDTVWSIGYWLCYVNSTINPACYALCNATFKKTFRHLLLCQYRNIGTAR
Outline: as §1

[3] = molecular target: T3, M2 muscarinic receptor (Homo sapiens, UniProt P08172); assay: Functional mobilization of intracellular calcium (FLIPR), M2-CHO cells; settings: for M2 Activity: M2-CHO cells, calcium mobilization (FLIPR)
T3 construct: expressed in transfected cells; host or cells: CHO (M2-CHO)
T3 sequence (P08172 1-466): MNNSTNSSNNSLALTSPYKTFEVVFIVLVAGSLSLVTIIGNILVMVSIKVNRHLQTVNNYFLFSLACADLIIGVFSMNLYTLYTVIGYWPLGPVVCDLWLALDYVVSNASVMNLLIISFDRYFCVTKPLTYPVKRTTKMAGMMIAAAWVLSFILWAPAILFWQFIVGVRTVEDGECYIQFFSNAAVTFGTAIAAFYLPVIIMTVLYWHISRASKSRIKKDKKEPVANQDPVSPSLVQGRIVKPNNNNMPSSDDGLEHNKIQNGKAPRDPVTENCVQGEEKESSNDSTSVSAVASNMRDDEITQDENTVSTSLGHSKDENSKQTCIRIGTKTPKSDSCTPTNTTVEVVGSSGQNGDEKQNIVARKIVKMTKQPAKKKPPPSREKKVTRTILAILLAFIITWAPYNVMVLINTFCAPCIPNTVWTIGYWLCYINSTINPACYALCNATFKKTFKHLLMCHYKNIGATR
Outline: as §1

[4] = molecular target: T4, M1 muscarinic receptor (Homo sapiens, UniProt P11229); assay: Functional mobilization of intracellular calcium (FLIPR), M1-CHO cells; settings: for M1 Activity: M1-CHO cells, calcium mobilization (FLIPR)
T4 construct: expressed in transfected cells; host or cells: CHO (M1-CHO)
T4 sequence (P11229 1-460): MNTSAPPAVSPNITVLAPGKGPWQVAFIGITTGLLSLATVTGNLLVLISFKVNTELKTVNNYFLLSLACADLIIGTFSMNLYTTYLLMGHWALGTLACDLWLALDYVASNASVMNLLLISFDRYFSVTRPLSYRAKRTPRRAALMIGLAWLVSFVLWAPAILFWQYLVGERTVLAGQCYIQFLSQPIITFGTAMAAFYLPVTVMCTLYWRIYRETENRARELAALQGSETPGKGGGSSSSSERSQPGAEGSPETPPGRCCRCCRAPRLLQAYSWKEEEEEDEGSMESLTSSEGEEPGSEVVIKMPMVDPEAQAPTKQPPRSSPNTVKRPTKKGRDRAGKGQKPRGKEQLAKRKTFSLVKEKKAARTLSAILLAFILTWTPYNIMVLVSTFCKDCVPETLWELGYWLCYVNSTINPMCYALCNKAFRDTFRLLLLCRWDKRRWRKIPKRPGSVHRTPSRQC
Outline: as §1

[5] = 100% efficacy is the maximum response obtained with the Carbachol control

T1 sequence (P20309 whole entry): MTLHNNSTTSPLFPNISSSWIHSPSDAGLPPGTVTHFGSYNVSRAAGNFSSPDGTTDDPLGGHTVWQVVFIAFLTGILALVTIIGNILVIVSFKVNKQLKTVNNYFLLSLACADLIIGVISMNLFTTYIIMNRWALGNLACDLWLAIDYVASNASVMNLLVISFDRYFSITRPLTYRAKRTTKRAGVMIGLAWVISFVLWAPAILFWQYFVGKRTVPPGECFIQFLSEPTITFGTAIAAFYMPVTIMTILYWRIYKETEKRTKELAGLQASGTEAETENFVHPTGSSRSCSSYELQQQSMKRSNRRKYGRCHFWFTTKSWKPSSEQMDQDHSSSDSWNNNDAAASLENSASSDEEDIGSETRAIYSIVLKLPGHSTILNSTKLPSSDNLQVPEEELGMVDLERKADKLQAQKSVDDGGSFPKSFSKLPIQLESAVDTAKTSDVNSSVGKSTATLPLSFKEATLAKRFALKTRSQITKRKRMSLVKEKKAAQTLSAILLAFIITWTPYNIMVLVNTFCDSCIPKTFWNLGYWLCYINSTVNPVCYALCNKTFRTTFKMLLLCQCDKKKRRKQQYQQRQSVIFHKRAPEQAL

| Emax [1, 5] [%] | Emax [2, 5] [%] | Emax [3, 5] [%] | Emax [4, 5] [%] | Compound | M3 Activity [1] | M4 Activity [2] | M2 Activity [3] | M1 Activity [4] | M3 Efficacy [1, 5] | M4 Efficacy [2, 5] | M2 Efficacy [3, 5] | M1 Efficacy [4, 5] |
| --- | --- | --- | --- | --- | --- | --- | --- | --- | --- | --- | --- | --- |
| < 25 | 25 to 100 | < 25 | < 25 | COc1ccc(-c2ccc(CC#N)cc2)cc1C1CCN(C2CCCCC2)CC1 [Compound 399] | + (activity was measured to be greater than 5.0 μM) | ++ (activity was measured to be from 1.0 μM to 5.0 μM) | + (activity was measured to be greater than 5.0 μM) | + (activity was measured to be greater than 5.0 μM) | – | – | – | – |
| < 25 | < 25 | < 25 | < 25 | COc1ccc(-c2ccc(NC(C)=O)cc2)cc1C1CCN([C@H]2C[C@H]3CC[C@H]2C3)CC1 [Compound 400] | + (activity was measured to be greater than 5.0 μM) | + (activity was measured to be greater than 5.0 μM) | + (activity was measured to be greater than 5.0 μM) | + (activity was measured to be greater than 5.0 μM) | – | – | – | – |
| < 25 | < 25 | < 25 | < 25 | COc1ccc(-c2ccc(C(=O)NC3CC3)cc2)cc1C1CCN([C@H]2C[C@H]3CC[C@H]2C3)CC1 [Compound 401] | + (activity was measured to be greater than 5.0 μM) | + (activity was measured to be greater than 5.0 μM) | + (activity was measured to be greater than 5.0 μM) | + (activity was measured to be greater than 5.0 μM) | – | – | – | – |
| < 25 | 25 to 100 | < 25 | < 25 | COc1cccc(-c2ccccc2C2CCN([C@H]3C[C@H]4CC[C@H]3C4)CC2)c1OC [Compound 402] | + (activity was measured to be greater than 5.0 μM) | ++ (activity was measured to be from 1.0 μM to 5.0 μM) | + (activity was measured to be greater than 5.0 μM) | + (activity was measured to be greater than 5.0 μM) | – | – | – | – |
| < 25 | 25 to 100 | < 25 | 25 to 100 | COc1ccc(-c2ccc(C(C)(C)C#N)cc2)cc1C1CCN(C2C[C@H]3CC[C@H]2C3)CC1 (stereo partly shown) [Compound 403] | + (activity was measured to be greater than 5.0 μM) | ++ (activity was measured to be from 1.0 μM to 5.0 μM) | + (activity was measured to be greater than 5.0 μM) | + (activity was measured to be greater than 5.0 μM) | – | – | – | – |
| < 25 | 25 to 100 | < 25 | 25 to 100 | C=Cc1ccc(OC)c(C2CCN([C@@H]3C[C@H]4CC[C@H]3C4)CC2)c1 [Compound 404] | + (activity was measured to be greater than 5.0 μM) | +++ (activity was measured to be less than 1.0 μM) | + (activity was measured to be greater than 5.0 μM) | ++ (activity was measured to be from 1.0 μM to 5.0 μM) | – | – | – | – |
| < 25 | > 100 | 25 to 100 | 25 to 100 | CCOC(=O)N1CCC(CN2CCC(c3ccccc3C(F)(F)F)CC2)CC1 [Compound 405] | + (activity was measured to be greater than 5.0 μM) | +++ (activity was measured to be less than 1.0 μM) | ++ (activity was measured to be from 1.0 μM to 5.0 μM) | +++ (activity was measured to be less than 1.0 μM) | – | – | – | – |

More lines, now with the values behind:

| Compound | Emax [1, 5] [%] | Emax [2, 5] [%] | Emax [3, 5] [%] | Emax [4, 5] [%] | M3 Activity [1] | M4 Activity [2] | M2 Activity [3] | M1 Activity [4] | M3 Efficacy [1, 5] | M4 Efficacy [2, 5] | M2 Efficacy [3, 5] | M1 Efficacy [4, 5] |
| --- | --- | --- | --- | --- | --- | --- | --- | --- | --- | --- | --- | --- |
| O=C(NCc1cccc(C2CCN(C3C[C@H]4CC[C@H]3C4)CC2)c1)C1CC1 (stereo partly shown) [Compound 391] | < 25 | < 25 | < 25 | < 25 | + (activity was measured to be greater than 5.0 μM) | + (activity was measured to be greater than 5.0 μM) | + (activity was measured to be greater than 5.0 μM) | + (activity was measured to be greater than 5.0 μM) | – | – | – | – |
| CCOC(=O)N1CCC(N2CCC(c3cc(Cl)ccc3OC)CC2)CC1 [Compound 392] | 25 to 100 | 25 to 100 | 25 to 100 | 25 to 100 | +++ (activity was measured to be less than 1.0 μM) | +++ (activity was measured to be less than 1.0 μM) | +++ (activity was measured to be less than 1.0 μM) | +++ (activity was measured to be less than 1.0 μM) | – | – | – | – |
| COc1ccc(-c2ccc(OC)c(C3CCN([C@@H]4C[C@H]5CC[C@H]4C5)CC3)c2)cc1 [Compound 393] | < 25 | 25 to 100 | < 25 | < 25 | + (activity was measured to be greater than 5.0 μM) | + (activity was measured to be greater than 5.0 μM) | + (activity was measured to be greater than 5.0 μM) | + (activity was measured to be greater than 5.0 μM) | – | – | – | – |
| COc1ccc(Cl)cc1C1(O)CCN(C[C@H]2C[C@H]3C=C[C@H]2C3)CC1 [Compound 394] | < 25 | 25 to 100 | 25 to 100 | < 25 | + (activity was measured to be greater than 5.0 μM) | +++ (activity was measured to be less than 1.0 μM) | + (activity was measured to be greater than 5.0 μM) | + (activity was measured to be greater than 5.0 μM) | – | – | – | – |
| Clc1cccc(-c2ccccc2C2CCN([C@H]3C[C@H]4CC[C@H]3C4)CC2)c1 [Compound 395] | < 25 | 25 to 100 | < 25 | < 25 | + (activity was measured to be greater than 5.0 μM) | + (activity was measured to be greater than 5.0 μM) | + (activity was measured to be greater than 5.0 μM) | + (activity was measured to be greater than 5.0 μM) | – | – | – | – |
| COc1ccc(Cl)cc1C1CCN(C2CCC(=NOCc3ccccc3)CC2)CC1 (stereo not shown) [Compound 396] | – | – | – | – | + (activity was measured to be greater than 5.0 μM) | +++ (activity was measured to be less than 1.0 μM) | + (activity was measured to be greater than 5.0 μM) | + (activity was measured to be greater than 5.0 μM) | + (efficacy was calculated to be less than 25%) | ++ (efficacy was calculated to be from 100% to 25%) | + (efficacy was calculated to be less than 25%) | ++ (efficacy was calculated to be from 100% to 25%) |
| COc1ccccc1C1CCN(C2CCCC(C)C2)CC1 (stereo not shown) [Compound 398] | < 25 | 25 to 100 | < 25 | 25 to 100 | + (activity was measured to be greater than 5.0 μM) | +++ (activity was measured to be less than 1.0 μM) | + (activity was measured to be greater than 5.0 μM) | + (activity was measured to be greater than 5.0 μM) | – | – | – | – |
